Measured values as given in ChEMBL document CHEMBL1201862, “PubChem BioAssay data set” (2004).
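Compound exposure: 48 hours, 5 concentrations, 96-well plates. Here, GI50 denotes the concentration required for 50% inhibition of growth.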 Calls of active or inactive are those of the source. Rule as the data show it: active = GI50 up to about 1.1 µM and inactive = higher.

Key:
Experiment in all cases: DTP human tumour cell line panel, 48 h
MDA-MB-435 = test system: MDA-MB-435
SK-MEL-28 = test system: SK-MEL-28
HL-60 = test system: HL-60
M14 = test system: M14
RPMI-8226 = test system: RPMI-8226
SR = test system: SR
HCC 2998 = test system: HCC 2998
HT-29 = test system: HT-29
BT-549 = test system: BT-549
NCI-H23 = test system: NCI-H23
786-0 = test system: 786-0
UACC-257 = test system: UACC-257
PC-3 = test system: PC-3
K562 = test system: K562
SW-620 = test system: SW-620
LOX IMVI = test system: LOX IMVI
KM12 = test system: KM12
SNB-75 = test system: SNB-75
SK-OV-3 = test system: SK-OV-3
TK-10 = test system: TK-10

| Compound | GI50 (MDA-MB-435) | GI50 (SK-MEL-28) | GI50 (HL-60) | GI50 (M14) | GI50 (RPMI-8226) | GI50 (SR) | GI50 (HCC 2998) | GI50 (HT-29) | GI50 (BT-549) | GI50 (NCI-H23) | GI50 (786-0) | GI50 (UACC-257) | GI50 (PC-3) | GI50 (K562) | GI50 (SW-620) | GI50 (LOX IMVI) | GI50 (KM12) | GI50 (SNB-75) | GI50 (SK-OV-3) | GI50 (TK-10) |
| --- | --- | --- | --- | --- | --- | --- | --- | --- | --- | --- | --- | --- | --- | --- | --- | --- | --- | --- | --- | --- |
| CN1C(=O)C(O)CC1c1ccccc1F (stereo not drawn) | > 100 µM (inactive) | > 100 µM (inactive) | > 100 µM (inactive) | > 100 µM (inactive) | > 100 µM (inactive) | > 100 µM (inactive) | > 100 µM (inactive) | > 100 µM (inactive) | > 100 µM (inactive) | > 100 µM (inactive) | > 100 µM (inactive) | > 100 µM (inactive) | > 100 µM (inactive) | > 100 µM (inactive) | > 100 µM (inactive) | > 100 µM (inactive) | > 100 µM (inactive) | > 100 µM (inactive) |  |  |
| Cc1ccc(NC(=O)CCc2nnc3s/c(=C\C=C\c4ccccc4)c(=O)n23)cc1 | > 86.5 µM (inactive) | > 100 µM (inactive) | 56 µM (inactive) | > 100 µM (inactive) | 46.9 µM (inactive) | 7.29 µM (inactive) | > 100 µM (inactive) | > 100 µM (inactive) | > 63.8 µM (inactive) | > 100 µM (inactive) | > 100 µM (inactive) | > 95.7 µM (inactive) | > 100 µM (inactive) | > 100 µM (inactive) | > 100 µM (inactive) | 27 µM (inactive) | 61.8 µM (inactive) | > 83.2 µM (inactive) | > 100 µM (inactive) | > 100 µM (inactive) |
| CCOP(=O)(C/C=C/Cn1nc(Br)c(=O)[nH]c1=O)OCC | > 100 µM (inactive) | > 100 µM (inactive) | > 100 µM (inactive) | > 100 µM (inactive) | > 100 µM (inactive) | > 100 µM (inactive) | > 100 µM (inactive) | > 100 µM (inactive) | > 100 µM (inactive) | > 100 µM (inactive) | > 100 µM (inactive) | > 100 µM (inactive) | > 100 µM (inactive) | > 100 µM (inactive) | > 100 µM (inactive) | > 100 µM (inactive) | > 100 µM (inactive) | > 100 µM (inactive) |  | > 100 µM (inactive) |
| CN(C)c1ccc(C(c2ccc(Cl)cc2)c2ccc(N(C)C)cc2)cc1 | > 100 µM (inactive) | > 100 µM (inactive) | > 100 µM (inactive) | > 100 µM (inactive) | 30.1 µM (inactive) | 57.5 µM (inactive) | 69 µM (inactive) | > 100 µM (inactive) | 54.8 µM (inactive) | > 100 µM (inactive) | > 100 µM (inactive) | 60.1 µM (inactive) | > 100 µM (inactive) | 83 µM (inactive) | > 100 µM (inactive) | > 100 µM (inactive) | > 100 µM (inactive) | > 100 µM (inactive) | > 100 µM (inactive) | > 100 µM (inactive) |
| CCN(CC)C(=O)N[C@@H](CC(C)C)C(=O)NC | > 100 µM (inactive) | > 100 µM (inactive) | 43.3 µM (inactive) | > 100 µM (inactive) | > 100 µM (inactive) | > 100 µM (inactive) | > 100 µM (inactive) | > 100 µM (inactive) | > 100 µM (inactive) | > 100 µM (inactive) | > 100 µM (inactive) |  | 73.6 µM (inactive) | > 100 µM (inactive) | > 100 µM (inactive) | > 100 µM (inactive) | > 100 µM (inactive) | > 100 µM (inactive) | > 100 µM (inactive) |  |
| Nc1nc(Cl)c(/C=N\O)c(NCC2(CO)CC(=O)C2)n1 | 95.1 µM (inactive) | > 100 µM (inactive) | 5.33 µM (inactive) |  | 3.33 µM (inactive) | 3.85 µM (inactive) | > 100 µM (inactive) | 80 µM (inactive) | 51.5 µM (inactive) | 36.4 µM (inactive) | 49.1 µM (inactive) | 58.3 µM (inactive) | 80.2 µM (inactive) | 54.2 µM (inactive) | 89.1 µM (inactive) | 45.8 µM (inactive) | 24.5 µM (inactive) | 31.1 µM (inactive) |  | > 100 µM (inactive) |
| O=C(CNCc1ccccc1)Oc1c(Cl)c(Cl)c(Cl)c(Cl)c1Cl | 35.2 µM (inactive) | 38.5 µM (inactive) | 23.8 µM (inactive) | 77.8 µM (inactive) |  | 21.8 µM (inactive) | 22.8 µM (inactive) | 32.7 µM (inactive) | 17.3 µM (inactive) | > 100 µM (inactive) | 93.1 µM (inactive) | 23.1 µM (inactive) | 22.1 µM (inactive) | 34.8 µM (inactive) | 32.5 µM (inactive) | 29.6 µM (inactive) | 21.8 µM (inactive) | 33.6 µM (inactive) | 47 µM (inactive) | 37.7 µM (inactive) |
| O=C(ON=c1c2ccccc2ccc2ccccc12)c1cc([N+](=O)[O-])cc([N+](=O)[O-])c1 | > 100 µM (inactive) | > 100 µM (inactive) | 28 µM (inactive) | > 100 µM (inactive) | 48.5 µM (inactive) | 35.2 µM (inactive) | 75.2 µM (inactive) | 94.4 µM (inactive) | 54.8 µM (inactive) | > 100 µM (inactive) | > 100 µM (inactive) | > 100 µM (inactive) | 41.8 µM (inactive) | 21.8 µM (inactive) | > 100 µM (inactive) | 90.2 µM (inactive) | 49 µM (inactive) | 40.8 µM (inactive) | > 100 µM (inactive) | > 100 µM (inactive) |
| COc1cc(/C=C2\C(=O)N(c3cccc([N+](=O)[O-])c3)C(c3ccccc3)S2(=O)=O)cc(OC)c1OC (stereo not drawn) | 32.3 µM (inactive) | > 100 µM (inactive) | 84.7 µM (inactive) | > 100 µM (inactive) | 64.9 µM (inactive) | 37.2 µM (inactive) | > 100 µM (inactive) | > 100 µM (inactive) | > 100 µM (inactive) | > 100 µM (inactive) | > 100 µM (inactive) | > 100 µM (inactive) | > 100 µM (inactive) | 49.4 µM (inactive) | 94.4 µM (inactive) | > 100 µM (inactive) | 92.7 µM (inactive) | > 100 µM (inactive) | > 100 µM (inactive) | > 100 µM (inactive) |
| O=C(NCCc1ccccc1)[C@H]1CCCC[C@@H]1CCO | > 100 µM (inactive) | > 100 µM (inactive) | > 100 µM (inactive) | > 100 µM (inactive) | > 100 µM (inactive) | > 100 µM (inactive) | > 100 µM (inactive) | > 100 µM (inactive) | > 100 µM (inactive) | > 100 µM (inactive) | > 100 µM (inactive) | > 100 µM (inactive) | > 100 µM (inactive) | > 100 µM (inactive) | > 100 µM (inactive) | > 100 µM (inactive) | > 100 µM (inactive) | > 100 µM (inactive) | > 100 µM (inactive) | > 100 µM (inactive) |
| COC(=O)c1ccc(NCc2cc(O)ccc2O)cc1O | 11.1 µM (inactive) | 16.4 µM (inactive) | 1.67 µM (inactive) | 16.5 µM (inactive) | 1.17 µM (inactive) | 5.48 µM (inactive) | 13.8 µM (inactive) | 17.2 µM (inactive) | 3.44 µM (inactive) | 9.46 µM (inactive) | 8.07 µM (inactive) | 15.7 µM (inactive) | 4.89 µM (inactive) | 4.1 µM (inactive) | 6.55 µM (inactive) | 13 µM (inactive) | 3.28 µM (inactive) | 3.08 µM (inactive) | 13.9 µM (inactive) | 16.7 µM (inactive) |
| NC(=O)/C=C/c1c[nH]c2nccnc12 | 3.59 µM (inactive) | 0.628 µM (active) | 2.26 µM (inactive) | 3.97 µM (inactive) | 2.43 µM (inactive) | 1.66 µM (inactive) | 1.14 µM (inactive) | 2.68 µM (inactive) | 2.2 µM (inactive) | 0.678 µM (active) | 3.34 µM (inactive) | 4.11 µM (inactive) | 2.99 µM (inactive) | 0.966 µM (active) | 0.891 µM (active) | 0.625 µM (active) | 2.93 µM (inactive) | 1.78 µM (inactive) | 3.95 µM (inactive) | 2.43 µM (inactive) |
| CC1(C)C2CC3C4CC5(Nc6ccccc6C5N41)[C@]3(C)CC2=O (stereo partly drawn) | > 50 µM (inactive) | > 50 µM (inactive) | > 50 µM (inactive) |  | > 50 µM (inactive) | > 50 µM (inactive) | > 50 µM (inactive) | > 50 µM (inactive) | > 50 µM (inactive) | > 50 µM (inactive) | > 50 µM (inactive) | > 50 µM (inactive) | > 50 µM (inactive) | > 50 µM (inactive) | > 50 µM (inactive) | > 50 µM (inactive) | > 50 µM (inactive) | > 50 µM (inactive) |  | > 50 µM (inactive) |
| COc1ccc(N2C(=O)c3cc(C)cnc3S2(=O)=O)cc1 | > 100 µM (inactive) | > 100 µM (inactive) | > 100 µM (inactive) |  | > 100 µM (inactive) | > 100 µM (inactive) | > 100 µM (inactive) | > 100 µM (inactive) | > 100 µM (inactive) | > 100 µM (inactive) | > 100 µM (inactive) |  | > 100 µM (inactive) | > 100 µM (inactive) | > 100 µM (inactive) | > 100 µM (inactive) | > 100 µM (inactive) | > 100 µM (inactive) | > 100 µM (inactive) | > 100 µM (inactive) |
